Test results taken from US20140227173A1, “CANCER TREATMENT WITH GAMMA-SECRETASE INHIBITORS” (The Johns Hopkins University, priority 2006, published 2014).

Experiments:
neuroblastoma cell lines = settings: cited from earlier work
DAOY = assay: Side population (Hoechst 33342 excretion) flow cytometry; assay type: cell-based
Protocol: (§1) The ability to excrete Hoechst dye, which defines SP (also known as “side population”) in flow cytometric analyses, is another marker of tumor-initiating CSC in the blood and brain (7, 8, 20). SP was therefore analyzed to obtain a second measure of the effects of Notch on CSC.
(§2) Flow cytometric analysis of S-phase fraction and cell cycle kinetics was performed using a FACSCalibur (Becton Dickinson, San Jose, Calif.) with CELL Quest, version 3.3 software (15). CD133 studies were performed using the same instrument, with antibodies from Miltenyi (Miltenyi Biotec, Auburn, Calif.) according to the manufacturer's instructions. […] Prior to analysis, cells were washed and resuspended in 2 μg/ml PI (Sigma, St. Louis, Mo.). […] To ensure proper identification of SP cells, cells were incubated as above with the addition of 50 μM verapamil (Sigma).

D283Med = assay: as above; assay type: cell-based
Protocol: as §1, §2

D425Med = assay: as above; assay type: cell-based
Protocol: as §1, §2

SMILES: O=C1c2c(O)ccc(O)c2C(=O)c2c(NCCNCCO)ccc(NCCNCCO)c21 [Mitoxantrone]
- side population (neuroblastoma cell lines): increases the side population

SMILES: COc1ccc(CCN(C)CCCC(C#N)(c2ccc(OC)c(OC)c2)C(C)C)cc1OC (stereo not shown) [verapamil, reference compound]
- Hoechst excretion (side population) (DAOY): abolished Hoechst excretion
- side population (D283Med): ablated
- side population (D425Med): ablated
